Source: paper PMC11149917, “Translational and Therapeutic Evaluation of RAS-GTP Inhibition by RMC-6236 in RAS-Driven Cancers” (Cancer Discovery, 2024)
Where “and” joins values, the source holds several entries; their conditions need not be identical. Identical values can stand only once.

Legend:
Dusp6 mRNA in ear skin = experiment: In vivo PD by Dusp6 qPCR and PK/PD relationship; parameters: species or system mouse; details: for % inhibition of DUSP6 vs control: sheet Ear Skin
Description: (§1) Tumor-bearing animals were randomized and assigned into groups (n = 1–10/group). The vehicle at 10 mL/kg or RMC-6236 at indicated doses was administered via oral gavage daily, and animals were treated for 28 days, or up to 90 days if PFS was being assessed. […] For single-dose PKPD study, mice were randomized and assigned into groups (n = 3/dose/time point). A single dose of RMC-6236 was administered orally at either 3, 10, or 25 mg/kg. Blood and tissues, including the tumor, brain, colon, ear skin, and muscle, were harvested at indicated time points. Whole blood was collected in K2EDTA Microtainer tubes, incubated for 5 minutes, and snap-frozen in liquid nitrogen. The tissue was either fixed in 10% formalin or snap-frozen in liquid nitrogen for further analysis.
(§2) RNA was extracted from at least 20 mg of tissue using an RNeasy Mini Kit (Qiagen, 74104) and a High-Throughput Tissue grinder following the manufacturer's protocol. Reverse transcription was carried out using High-Capacity cDNA Reverse Transcription Kit (ABI, 4368814) according to the manufacturer's protocol. The cDNA product was used for qPCR analysis using TaqMan Gene-Expression Master Mix (ABI, 4369016). TaqMan primer probes specific to DUSP6 (human—Hs00737962_m1, murine—Mm00518185_m1, FAM-MGB) and 18S (RNA18S1; human—Hs99999901_s1, murine—Mm03928990_g1, FAM-MGB, used as an internal control gene) were used to detect the levels from each sample in duplicates using a 10 µL final reaction volume in a 384-well clear optical reaction plate. For qPCR, Ct values of DUSP6 and 18S were obtained for analysis. DUSP6 Ct value was normalized to 18S, and then the mean relative mRNA expression levels of each group were normalized to the vehicle control group. Values were plotted as relative change in mRNA expression compared with vehicle. Means ± SEM were shown.
(§3) Concentrations of RMC-6236 in tumor or normal tissues and percentage of DUSP6 inhibition as compared with the vehicle control from individual animals were collected and analyzed post a single dose of RMC-6236 ranging from 0.3 to 100 mg/kg (Supplementary Table S6). A 3-parameter sigmoidal exposure–response model was fitted to the data in GraphPad Prism to derive EC50 and EC90 values.

Dusp6 mRNA in colon = experiment: In vivo PD by Dusp6 qPCR and PK/PD relationship; parameters: species or system mouse; details: for % inhibition of DUSP6 vs control: sheet colon
Description: as §1, §2, §3

pERK in ear skin = experiment: IHC whole-slide quantification; type: in vivo, mouse; details: control 1.1
Description: All tissues were fixed for up to 24 hours using 10% neutral buffered formalin and then moved to 70% ethanol for long-term storage. FFPE sections (4 µm) were stained on the Biocare intelliPATH automated staining platform using the manufacturer’s recommended settings.
Anti–phospho-p44/42 MAPK (Erk1/2; Thr202/Tyr204) rabbit monoclonal antibody (Cell Signaling Technology, cat no. 4370, clone: D13.14.4E) was used at 1:200 with citrate-based pH 6.2 heat-induced epitope retrieval; an isotype control (rabbit IgG) was used under the same conditions.
All tissue sections were incubated with Biocare Peroxidase Blocker (Biocare, cat no. PX968) and Background Punisher (Biocare, cat no. BP974M) to block nonspecific background. MACH4 HRP-polymer Detection System (Biocare, cat no. MRH534) was used to detect rabbit primary antibodies.
DAB-stained slides were scanned and digitized with a Huron TissueScope LE120 whole-slide scanner at 200× magnification.
Quantification of P-ERK and pS6 was performed with the HALO Image Analysis software from Indica labs using the Area Quantification module. The analysis was performed only on the tumor compartment copied from the EpCAM slide. The software was tuned to detect positive DAB staining (brown color). Percentage of area positivity was chosen to represent the results (area positive for brown/total area); and subjected to statistical analysis using GraphPad Prism (Dunnett multiple comparisons test).

CCn1c(-c2cc(N3CCN(C)CC3)cnc2[C@H](C)OC)c2c3cc(ccc31)-c1csc(n1)C[C@H](NC(=O)[C@H]1C[C@@H]1C)C(=O)N1CCC[C@H](N1)C(=O)OCC(C)(C)C2 [RMC-6236]
EC50 (Dusp6 mRNA in ear skin; Mus musculus, read-out: EC50, inhibition of Dusp6 expression vs RMC-6236 concentration (PK/PD relationship)): 1.16 µM
EC90 (Dusp6 mRNA in ear skin; Mus musculus, read-out: EC90, inhibition of Dusp6 expression vs RMC-6236 concentration (PK/PD relationship)): 10.3 µM
% inhibition of DUSP6 vs control (Dusp6 mRNA in ear skin; model Capan-2, study Capan-2 #3_PHA 2023, 10 mg/kg, 2h): 42.9575% and 52.5293% and 38.4381%
% inhibition of DUSP6 vs control (Dusp6 mRNA in ear skin; model Capan-2, study Capan-2 #3_PHA 2023, 10 mg/kg, 4h): 58.9598% and 71.2804% and 61.0388%
% inhibition of DUSP6 vs control (Dusp6 mRNA in ear skin; model Capan-2, study Capan-2 #3_PHA 2023, 10 mg/kg, 24h): 3.733% and 0%
% inhibition of DUSP6 vs control (Dusp6 mRNA in ear skin; model Capan-2, study Capan-2 #3_PHA 2023, 10 mg/kg, 48h): 6.69% and 0%
% inhibition of DUSP6 vs control (Dusp6 mRNA in ear skin; model Capan-2, study Capan-2 #3_PHA 2023, 25 mg/kg, 2h): 80.2475% and 68.4632% and 48.9455%
% inhibition of DUSP6 vs control (Dusp6 mRNA in ear skin; model Capan-2, study Capan-2 #3_PHA 2023, 25 mg/kg, 4h): 91.4616% and 90.6888% and 92.061%
% inhibition of DUSP6 vs control (Dusp6 mRNA in ear skin; model Capan-2, study Capan-2 #3_PHA 2023, 25 mg/kg, 8h): 84.5561% and 76.0166% and 82.9823%
% inhibition of DUSP6 vs control (Dusp6 mRNA in ear skin; model Capan-2, study Capan-2 #3_PHA 2023, 25 mg/kg, 24h): 0%
% inhibition of DUSP6 vs control (Dusp6 mRNA in ear skin; model Capan-2, study Capan-2 #3_PHA 2023, 25 mg/kg, 48h): 0%
% inhibition of DUSP6 vs control (Dusp6 mRNA in ear skin; model Capan-2, study Capan-2 #3_PHA 2023, 50 mg/kg, 2h): 78.2346% and 81.5063% and 55.09%
% inhibition of DUSP6 vs control (Dusp6 mRNA in ear skin; model Capan-2, study Capan-2 #3_PHA 2023, 50 mg/kg, 4h): 93.2074% and 87.1476% and 69.7478%
% inhibition of DUSP6 vs control (Dusp6 mRNA in ear skin; model Capan-2, study Capan-2 #3_PHA 2023, 50 mg/kg, 8h): 88.8886% and 90.1237% and 86.7863%
% inhibition of DUSP6 vs control (Dusp6 mRNA in ear skin; model Capan-2, study Capan-2 #3_PHA 2023, 100 mg/kg, 2h): 57.6595% and 75.6818% and 80.5868%
% inhibition of DUSP6 vs control (Dusp6 mRNA in ear skin; model Capan-2, study Capan-2 #3_PHA 2023, 100 mg/kg, 4h): 89.3781% and 78.2346% and 89.488%
% inhibition of DUSP6 vs control (Dusp6 mRNA in ear skin; model Capan-2, study Capan-2 #3_PHA 2023, 100 mg/kg, 8h): 93.8569% and 95.7308% and 92.061%
% inhibition of DUSP6 vs control (Dusp6 mRNA in ear skin; model Capan-2, study Capan-2 #3_PHA 2023, 100 mg/kg, 24h): 30.7393% and 61.1736%
% inhibition of DUSP6 vs control (Dusp6 mRNA in ear skin; model KP-4, study KP-4 #5, 25 mg/kg, 4h): 90.5424% and 91.5353% and 93.5179%
% inhibition of DUSP6 vs control (Dusp6 mRNA in ear skin; model KP-4, study KP-4 #5, 25 mg/kg, 8h): 80.3499% and 66.4912% and 89.8987%
shift in EC50 and EC90 vs tumor cells of Capan-2, NCI-H441, and HPAC models (Dusp6 mRNA in ear skin; skin from tumor-bearing animals): ≥ 10 fold
EC50 (Dusp6 mRNA in colon; Mus musculus, colon of tumor-bearing BALB/c nude mice, read-out: EC50, inhibition of Dusp6 expression vs RMC-6236 concentration (PK/PD relationship)): 1.71 µM
EC90 (Dusp6 mRNA in colon; Mus musculus, colon of tumor-bearing BALB/c nude mice, read-out: EC90, inhibition of Dusp6 expression vs RMC-6236 concentration (PK/PD relationship)): 15.4 µM
shift in EC50 and EC90 vs tumor cells of Capan-2, NCI-H441, and HPAC models (Dusp6 mRNA in colon; colon from tumor-bearing animals): ≥ 10 fold
% inhibition of DUSP6 vs control (Dusp6 mRNA in colon; Capan-2, Capan-2 #3_PHA 2023, 3 mg/kg, 2h): 37.2913% and 60.5871% and 58.0501%
% inhibition of DUSP6 vs control (Dusp6 mRNA in colon; Capan-2, Capan-2 #3_PHA 2023, 3 mg/kg, 4h): 61.1298% and 32.7904% and 59.3384%
% inhibition of DUSP6 vs control (Dusp6 mRNA in colon; Capan-2, Capan-2 #3_PHA 2023, 3 mg/kg, 8h): 84.3228% and 73.9972% and 54.4116%
% inhibition of DUSP6 vs control (Dusp6 mRNA in colon; Capan-2, Capan-2 #3_PHA 2023, 3 mg/kg, 24h): 0%
% inhibition of DUSP6 vs control (Dusp6 mRNA in colon; Capan-2, Capan-2 #3_PHA 2023, 10 mg/kg, 2h): 57.1687% and 58.484% and 80.9648%
% inhibition of DUSP6 vs control (Dusp6 mRNA in colon; Capan-2, Capan-2 #3_PHA 2023, 10 mg/kg, 4h): 72.1309% and 81.8034% and 73.7254%
% inhibition of DUSP6 vs control (Dusp6 mRNA in colon; Capan-2, Capan-2 #3_PHA 2023, 10 mg/kg, 8h): 81.8664% and 78.1343% and 82.9039%
% inhibition of DUSP6 vs control (Dusp6 mRNA in colon; Capan-2, Capan-2 #3_PHA 2023, 10 mg/kg, 24h): 0% and 4.621%
% inhibition of DUSP6 vs control (Dusp6 mRNA in colon; Capan-2, Capan-2 #3_PHA 2023, 25 mg/kg, 2h): 88.2825% and 80.9648% and 65.0894%
% inhibition of DUSP6 vs control (Dusp6 mRNA in colon; Capan-2, Capan-2 #3_PHA 2023, 25 mg/kg, 4h): 67.0868% and 83.3714% and 61.2642%
% inhibition of DUSP6 vs control (Dusp6 mRNA in colon; Capan-2, Capan-2 #3_PHA 2023, 25 mg/kg, 8h): 50.4575% and 35.7513% and 63.8583%
% inhibition of DUSP6 vs control (Dusp6 mRNA in colon; Capan-2, Capan-2 #3_PHA 2023, 25 mg/kg, 24h): 0%
% inhibition of DUSP6 vs control (Dusp6 mRNA in colon; Capan-2, Capan-2 #3_PHA 2023, 25 mg/kg, 48h): 0%
% inhibition of DUSP6 vs control (Dusp6 mRNA in colon; Capan-2, Capan-2 #3_PHA 2023, 50 mg/kg, 4h): 52.3107% and 83.9934% and 66.044%
% inhibition of DUSP6 vs control (Dusp6 mRNA in colon; Capan-2, Capan-2 #3_PHA 2023, 50 mg/kg, 24h): 0%
% inhibition of DUSP6 vs control (Dusp6 mRNA in colon; Capan-2, Capan-2 #3_PHA 2023, 50 mg/kg, 48h): 0%
% inhibition of DUSP6 vs control (Dusp6 mRNA in colon; Capan-2, Capan-2 #3_PHA 2023, 100 mg/kg, 2h): 67.4272% and 86.2096% and 68.6456%
% inhibition of DUSP6 vs control (Dusp6 mRNA in colon; Capan-2, Capan-2 #3_PHA 2023, 100 mg/kg, 4h): 65.0894% and 44.0683% and 74.5323%
% inhibition of DUSP6 vs control (Dusp6 mRNA in colon; Capan-2, Capan-2 #3_PHA 2023, 100 mg/kg, 8h): 70.4396% and 92.2693% and 83.0807%
% inhibition of DUSP6 vs control (Dusp6 mRNA in colon; Capan-2, Capan-2 #3_PHA 2023, 100 mg/kg, 24h): 0%
% inhibition of DUSP6 vs control (Dusp6 mRNA in colon; Capan-2, Capan-2 #3_PHA 2023, 100 mg/kg, 48h): 0%
% inhibition of DUSP6 vs control (Dusp6 mRNA in colon; KP-4, KP-4 #5, 25 mg/kg, 4h): 76.482% and 79.4553% and 90.4818%
% inhibition of DUSP6 vs control (Dusp6 mRNA in colon; KP-4, KP-4 #5, 25 mg/kg, 8h): 84.9604% and 85.3209% and 74.5306%
% inhibition of DUSP6 vs control (Dusp6 mRNA in colon; KP-4, KP-4 #5, 25 mg/kg, 24h): 0%
% inhibition of DUSP6 vs control (Dusp6 mRNA in colon; KP-4, KP-4 #5, 25 mg/kg, 48h): 0%
pERK (% positive area) (pERK in ear skin; Ear Skin (25 mg/kg x7d), 8h): 0.7%
pERK (% positive area) (pERK in ear skin; Ear Skin (25 mg/kg x7d), 24h): 0.9%
pERK (% positive area) (pERK in ear skin; Ear Skin (25 mg/kg x7d), 48hr): 2.6%
pERK (% positive area) (pERK in ear skin; Ear Skin (25 mg/kg), 8h): 1.1%
pERK (% positive area) (pERK in ear skin; Ear Skin (25 mg/kg), 24h): 1.8%
pERK (% positive area) (pERK in ear skin; Ear Skin (25 mg/kg), 48hr): 3.3%
